Measurements: PubChem BioAssay (NCI)
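Each compound was tested at five concentrations against cells in 96-well plates for 48 hours. At the TGI there is no net growth.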

Tests used:
Assay in all cases: NCI anticancer screen, dose series, 48 h
786-0 renal = test system: 786-0 renal
A498 renal = test system: A498 renal
A549 NSCLC = test system: A549 NSCLC
ACHN renal = test system: ACHN renal
CAKI-1 renal = test system: CAKI-1 renal
CCRF-CEM leukemia = test system: CCRF-CEM leukemia
COLO 205 colon = test system: COLO 205 colon
DLD-1 colon = test system: DLD-1 colon
DMS 114 small cell lung = test system: DMS 114 small cell lung
DMS 273 small cell lung = test system: DMS 273 small cell lung
EKVX NSCLC = test system: EKVX NSCLC
HCC-2998 colon = test system: HCC-2998 colon
HCT-116 colon = test system: HCT-116 colon
HCT-15 colon = test system: HCT-15 colon
HL-60(TB) leukemia = test system: HL-60(TB) leukemia
HOP-18 NSCLC = test system: HOP-18 NSCLC
HOP-62 NSCLC = test system: HOP-62 NSCLC
HT29 colon = test system: HT29 colon
IGROV1 ovarian = test system: IGROV1 ovarian
K-562 leukemia = test system: K-562 leukemia
KM12 colon = test system: KM12 colon
KM20L2 colon = test system: KM20L2 colon
LOX IMVI melanoma = test system: LOX IMVI melanoma
LXFL 529 NSCLC = test system: LXFL 529 NSCLC
M14 melanoma = test system: M14 melanoma
M19-MEL melanoma = test system: M19-MEL melanoma
MALME-3M melanoma = test system: MALME-3M melanoma
MOLT-4 leukemia = test system: MOLT-4 leukemia
NCI-H226 lung = test system: NCI-H226 lung
NCI-H23 lung = test system: NCI-H23 lung
NCI-H460 lung = test system: NCI-H460 lung
NCI-H522 lung = test system: NCI-H522 lung
OVCAR-3 ovarian = test system: OVCAR-3 ovarian
OVCAR-4 ovarian = test system: OVCAR-4 ovarian
OVCAR-5 ovarian = test system: OVCAR-5 ovarian
OVCAR-8 ovarian = test system: OVCAR-8 ovarian
RPMI-8226 leukemia = test system: RPMI-8226 leukemia
RXF 393 renal = test system: RXF 393 renal
SF-268 CNS = test system: SF-268 CNS
SF-295 CNS = test system: SF-295 CNS
SF-539 CNS = test system: SF-539 CNS
SK-MEL-2 melanoma = test system: SK-MEL-2 melanoma
SK-MEL-28 melanoma = test system: SK-MEL-28 melanoma
SK-MEL-5 melanoma = test system: SK-MEL-5 melanoma
SK-OV-3 ovarian = test system: SK-OV-3 ovarian
SN12C renal = test system: SN12C renal
SNB-19 CNS = test system: SNB-19 CNS
SNB-75 CNS = test system: SNB-75 CNS
SNB-78 CNS = test system: SNB-78 CNS
SR leukemia = test system: SR leukemia
SW-620 colon = test system: SW-620 colon
TK-10 renal = test system: TK-10 renal
U251 CNS = test system: U251 CNS
UACC-257 melanoma = test system: UACC-257 melanoma
UACC-62 melanoma = test system: UACC-62 melanoma
UO-31 renal = test system: UO-31 renal
HOP-92 NSCLC = test system: HOP-92 NSCLC

In the case of `CC(=O)Nc1ccc(C2[C@H]3C(=O)N(c4ccc(Cc5ccc(N6C(=O)[C@@H]7ON(c8ccccc8)C(c8ccc(NC(C)=O)cc8)[C@@H]7C6=O)cc5)cc4)C(=O)[C@H]3ON2c2ccccc2)cc1` (some centres undefined), the TGI (786-0 renal) is reported as over 100 µM, the TGI (A498 renal) is reported as over 100 µM and the TGI (A549 NSCLC) is reported as over 100 µM. It also gave a TGI (ACHN renal) of over 100 µM, a TGI (CAKI-1 renal) of over 100 µM and a TGI (CCRF-CEM leukemia) of over 100 µM. It also gave a TGI (COLO 205 colon) of over 100 µM, a TGI (DLD-1 colon) of over 100 µM and a TGI (DMS 114 small cell lung) of over 100 µM. It also gave a TGI (DMS 273 small cell lung) of over 100 µM, a TGI (EKVX NSCLC) of over 100 µM and a TGI (HCC-2998 colon) of over 100 µM. It also gave a TGI (HCT-116 colon) of over 100 µM, a TGI (HCT-15 colon) of over 100 µM and a TGI (HL-60(TB) leukemia) of over 100 µM. It also gave a TGI (HOP-18 NSCLC) of over 100 µM, a TGI (HOP-62 NSCLC) of over 100 µM and a TGI (HT29 colon) of over 100 µM. It also gave a TGI (IGROV1 ovarian) of over 100 µM, a TGI (K-562 leukemia) of over 100 µM and a TGI (KM12 colon) of over 100 µM. The TGI (KM20L2 colon) was over 100 µM, the TGI (LOX IMVI melanoma) was over 100 µM and the TGI (LXFL 529 NSCLC) was over 100 µM. The TGI (M14 melanoma) was 79.8 µM, the TGI (M19-MEL melanoma) was over 100 µM and the TGI (MALME-3M melanoma) was over 100 µM. The TGI (MOLT-4 leukemia) was over 100 µM, the TGI (NCI-H226 lung) was over 100 µM and the TGI (NCI-H23 lung) was over 100 µM. For the same compound, the TGI (NCI-H460 lung) was over 100 µM, the TGI (NCI-H522 lung) was over 100 µM and the TGI (OVCAR-3 ovarian) was over 100 µM. It also gave a TGI (OVCAR-4 ovarian) of over 100 µM, a TGI (OVCAR-5 ovarian) of over 100 µM and a TGI (OVCAR-8 ovarian) of over 100 µM. It also gave a TGI (RPMI-8226 leukemia) of over 100 µM, a TGI (RXF 393 renal) of over 100 µM and a TGI (SF-268 CNS) of over 100 µM. It also gave a TGI (SF-295 CNS) of over 100 µM, a TGI (SF-539 CNS) of over 100 µM and a TGI (SK-MEL-2 melanoma) of over 100 µM. For the same compound, the TGI (SK-MEL-28 melanoma) was over 100 µM, the TGI (SK-MEL-5 melanoma) was over 100 µM and the TGI (SK-OV-3 ovarian) was over 100 µM. It also gave a TGI (SN12C renal) of over 100 µM, a TGI (SNB-19 CNS) of over 100 µM and a TGI (SNB-75 CNS) of over 100 µM. For the same compound, the TGI (SNB-78 CNS) was over 100 µM, the TGI (SR leukemia) was over 100 µM and the TGI (SW-620 colon) was over 100 µM. It also gave a TGI (TK-10 renal) of over 100 µM, a TGI (U251 CNS) of over 100 µM and a TGI (UACC-257 melanoma) of over 100 µM. The TGI (UACC-62 melanoma) was over 100 µM and the TGI (UO-31 renal) was over 100 µM.

Compound `CCOC(=O)CC[C@@H](NC(=O)c1ccc(N[C@@H]2c3cc4c(cc3C(c3cc(OC)c(O)c(OC)c3)C3C(=O)OC[C@@H]32)OCO4)cc1)C(=O)OCC` (some centres undefined) has a TGI (786-0 renal) of over 10 µM, a TGI (A498 renal) of 0.0668 µM and a TGI (ACHN renal) of 0.0379 µM. The TGI (CAKI-1 renal) was 0.0539 µM, the TGI (CCRF-CEM leukemia) was over 10 µM and the TGI (DLD-1 colon) was 0.406 µM. The TGI (DMS 273 small cell lung) was 0.114 µM, the TGI (EKVX NSCLC) was 0.0799 µM and the TGI (HCC-2998 colon) was 0.318 µM. The TGI (HCT-15 colon) was 0.233 µM, the TGI (HL-60(TB) leukemia) was 0.05 µM and the TGI (HOP-18 NSCLC) was over 10 µM. For the same compound, the TGI (HOP-62 NSCLC) was 0.0424 µM, the TGI (HOP-92 NSCLC) was 0.0808 µM and the TGI (HT29 colon) was 0.751 µM. The TGI (IGROV1 ovarian) was 0.32 µM, the TGI (K-562 leukemia) was over 10 µM and the TGI (KM20L2 colon) was 0.272 µM. For the same compound, the TGI (LXFL 529 NSCLC) was over 10 µM, the TGI (M14 melanoma) was over 10 µM and the TGI (MALME-3M melanoma) was 0.236 µM. It also gave a TGI (MOLT-4 leukemia) of over 10 µM, a TGI (NCI-H23 lung) of 0.0424 µM and a TGI (NCI-H460 lung) of 0.0174 µM. It also gave a TGI (OVCAR-3 ovarian) of 0.37 µM, a TGI (OVCAR-5 ovarian) of 0.404 µM and a TGI (RPMI-8226 leukemia) of over 10 µM. The TGI (SF-268 CNS) was 0.0686 µM, the TGI (SF-295 CNS) was 0.0497 µM and the TGI (SF-539 CNS) was 0.0478 µM. It also gave a TGI (SK-MEL-2 melanoma) of 0.235 µM, a TGI (SK-MEL-28 melanoma) of 0.53 µM and a TGI (SK-MEL-5 melanoma) of 0.144 µM. It also gave a TGI (SK-OV-3 ovarian) of 0.0656 µM, a TGI (SN12C renal) of 0.0897 µM and a TGI (SNB-19 CNS) of 0.116 µM. For the same compound, the TGI (SNB-78 CNS) was over 10 µM, the TGI (SR leukemia) was over 10 µM and the TGI (TK-10 renal) was 0.375 µM. For the same compound, the TGI (U251 CNS) was 0.123 µM, the TGI (UACC-257 melanoma) was 0.724 µM and the TGI (UACC-62 melanoma) was 0.0557 µM. The TGI (UO-31 renal) was 0.194 µM.
